The text below walks through data of patent publication US20090041876A1, “OIL/FAT-CONTAINING COMPOSITION FOR SUPPRESSION OF CARCINOGENESIS” (KANEKA CORPORATION, priority 2005, published 2009).

One data set relates to GST-P-positive cell foci. Description: liver medium-term bioassay (Ito test): quantitative analysis of GST-P-positive cell foci in rat liver. The data set is classed as in vivo. The procedure:
In order to examine the effect of the MCT solution of Example 1 on carcinogenesis, a search using a liver medium-term bioassay (Ito test) was performed. This test method is one of the two-step carcinogenesis models using rodents and is employed for rat liver. This test method has been used to search for 313 or more chemical substances, and is considered to be a reliable and useful method of searching for carcinogens or carcinogenesis-suppressing substances. Therefore, this test is accepted as an alternative to a conventional long-term carcinogenicity test in the Japan/US/EU Trilateral International Conference on Harmonization of Technical Requirements for Registration of Pharmaceuticals for Human Use (ICH). […]
(§1) After a lapse of the third week of the experiment (one week after the start of test substance administration), partial hepatectomy was performed for all the animals, and lesions in the livers were amplified. […] The areas of the liver sections and the numbers and areas of GST-P-positive cell foci with diameters of 0.2 mm or more were measured using a pathological specimen image analyzer IPAP-WIN (Sumika Technoservice Corporation), and then the areas and numbers per cm^2 of the liver sections were calculated to perform a quantitative analysis. […]

Data set [1] is described as follows: liver medium-term bioassay (Ito test): liver weights, general status, light and electron microscopical examination of livers. The data set is classed as in vivo, rat. Particulars: F344 male rats, DEN +, 500 ppm with feed (positive control). The method, then:
Diethylnitrosamine (DEN) was administered intraperitoneally to the rats once at a dose of 200 mg/kg for the purpose of an initiation treatment for liver carcinogenesis, and from two weeks after the administration, a test substance, i.e., the MCT solution was forcibly administered orally at doses of 0 (control group), 150, 300, and 600 mg/kg once a day seven times/week for six weeks (Groups 1 to 4). The doses of the MCT solution used in this test (150, 300, and 600 mg/kg) correspond to 45, 90, and 180 mg/kg body weight in terms of a licorice extract serving as an effective ingredient. In addition, phenobarbital sodium salt (S. PB) was administered with a feed to a positive control group at a concentration of 500 ppm (Group 5). […]
as §1

Where a name gives a salt, the structure may show the parent alone. Marks after values point to notes of the source that are not given here.

Regarding `CCC1(c2ccccc2)C(=O)NC(=O)NC1=O` [Phenobarbital Sodium, phenobarbital sodium salt], in the data set on GST-P-positive cell foci (Group 5, DEN +, 500 ppm with feed), the “number and area per unit area of GST-P-positive cell foci versus control” value is listed as “evidently high levels”. For the same molecule, the “GST-P-positive cell foci, Area” value with GST-P-positive cell foci (rat liver, DEN +, 500 ppm with feed (positive control)) is 0.541 ± 0.160** mm^2/cm^2. Also, in data set [1], the “Liver weight, Absolute weight” value was found to be 9.2781 ± 0.4913 g and the “Liver weight, Relative weight” value amounted to 3.3527 ± 0.1032 %.
